Tests used:
[1] = test system: certain human breast cancer cell lines; settings: WO 95/06469; cited from earlier work
[2] = rat, in vivo, iv, 25 mg/kg
MDA468 = test: In vitro cytotoxicity, 3-day MTT assay, MDA468; assay type: cell-based; settings: n=8
Protocol: (§1) In carrying out the following cytoloxicity assays, the method used corresponds substantially to the following example: • Cells were maintained in a continuous logarithmic culture in RMPI 1640 with L-glutamine medium, supplemented with 10% fetal calf serum, penicillin (100 IU/ml) and streptomycin (100 μg/ml). The cells were mildly trypsinized for passage and for use in assays. • On day one, 180 μl of trypsinized tumour cells (5×10^3 ml^−1) were placed in the wells of 96-well, flat-bottom microtiter plates. Columns 1 and 12 were filled with 300 μl medium to protect from evaporation. The plates were incubated for 24 hours at 37° C. and 5% CO2 in air to allow the cells to adhere and resume exponential growth prior to the addition of drugs. The compounds being tested were dissolved in DMSO and stored as 10 mM stock solutions at 4° C., protected from light. […] 20 μl of drug dilution was added to the other wells with the lowest concentration in column 3 and the highest concentration in column 11. The plates were incubated for 72 hours at 37° C. and 5% CO2 in air. Each compound was tested in triplicate. At the time of drug addition, a plate of untreated cells was read to provide an initial optical density value for use in the calculation of the IC50. • On day five the plates were read. 50 μl MTT (1 mg/ml^−1) was added per well and the plates incubated for a further 4 hours. The MTT is metaboliscd to form a blue formazan product. The MTT solution was aspirattd and 125 μl DMSO:glycine buffer (4:1) was added. The plates were placed on a plate shaker until the fornazan crystals had dissolved and absorbance was ready at 550 nm on a plate reader. • For each compound tested, a dose response curve was obtained and the IC50 statue (drug concentration at 50% inhibition of cell growth) was calculated.
(§2) (n=8) for a range of compounds in relation to MCF-7 and MDA 468 cell lines.

[3] = Stability in plasma in vitro; assay type: in vitro ADME, rat; settings: rat, plasma
MCF-7 = test: In vitro cytotoxicity, 3-day MTT assay, MCF-7; assay type: cell-based, human; settings: 3-day MTT assay, n=8
Protocol: as §1, §2

MCF-7 cells = test: Conversion of prodrug to parent in culture of MCF-7 cells; assay type: cell-based
COLO205 xenografts = test: In vivo COLO205 xenograft study (FIG. 2)
[4] = Plasma concentrations after administration to mice; assay type: in vivo; settings: mouse, 70 μmol/kg, read-out: Geometric Mean Plasma Concentration
[5] = Blood parameters and liver transaminases in xenograft studies; parameters: species or system nude mice; settings: mouse, in vivo
[6] = test system: ER positive MCF-7 human breast tumor xenografts
[7] = test system: ER negative MT-1 human breast tumor xenografts
sensitive cell lines = test: Biphasic dose-response relationship (second growth phase) in sensitive cell lines; assay type: cell-based
From the text: One feature of the prior art compounds is that they show a biphasic dose-response relationship specifically in sensitive cell lines: cell kill occurs at low nanomolar concentrations of the compounds, followed by a potentially undesirable proliferative response at low micromolar concentrations (termed the “second growth phase”).

[8] = test system: cell lines that relate to a range of various mammalian cancers other than human breast cancer; settings: WO 96/26932; cited from earlier work

For `Nc1ccc(-c2nc3ccccc3s2)cc1` [CJM 126, 2-(4′-aminophenyl)benzothiazole], which “specific inhibitory activity in human breast cancer cell lines” value [1] is on record?
Its value is “remarkably high specific inhibitory activity”.

What does the source list for `Cc1cc(-c2nc3cc(F)ccc3s2)ccc1NC(=O)C(N)CCCCN.Cl.Cl` (centres unmarked) [Compound Iad, 5-Fluoro-2-(4′-amino-3′-methylphenyl)benzothiazole Lysyl Amide Dihydrochloride Salt]?
removal from plasma and reconversion to parent compound in vivo [2]: readily removed from such plasma and reconverted to their parent compound in vivo; IC50 (MDA468): 158 nM; stability in plasma in vitro [3]: stable; IC50 (MCF-7): 40 nM; concentration of parent compound 5F203 after addition of prodrug to MCF-7 culture (MCF-7 cells): progressive increase in concentration of the parent compound 5F203

Which results are given for `Cc1cc(-c2nc3cc(F)ccc3s2)ccc1N` [Compound Ik, 5-Fluoro-2-(4′-amino-3′-methylphenyl)benzothiazole]?
IC50 (MDA468; 72 h): < 0.1 nM; IC50 (MCF-7; Homo sapiens, MCF7, 72 h): < 0.1 nM; tumour growth inhibition, COLO205 xenografts (FIG. 2) (COLO205 xenografts): tumour growth inhibition observed; concentration at 3.5 min ([4]; mean sample time 3.5 min): 1180 nM; concentration at 6.5 min ([4]; mean sample time 6.5 min): 1530 nM; concentration at 9.5 min ([4]; mean sample time 9.5 min): 1840 nM; concentration at 12.5 min ([4]; mean sample time 12.5 min): 2270 nM; concentration at 15.5 min ([4]; mean sample time 15.5 min): 3.27 µM; concentration at 20.8 min ([4]; mean sample time 20.8 min): 2680 nM; concentration at 30.5 min ([4]; mean sample time 30.5 min): 3.77 µM; concentration at 45.4 min ([4]; mean sample time 45.4 min): 3.41 µM; concentration at 60.5 min ([4]; mean sample time 60.5 min): 4.11 µM; concentration at 90.6 min ([4]; mean sample time 90.6 min): 3.52 µM; concentration at 120.5 min ([4]; mean sample time 120.5 min): 2630 nM; concentration at 240 min ([4]; mean sample time 240.0 min): 1000 nM; concentration at 360 min ([4]; mean sample time 360.0 min): 590 nM; blood parameters (white blood cell and platelet counts) and level of liver transaminases [5]: not adversely affected; toxicity in MCF-7 xenograft study ([6]; 12.5 mg/kg, i.p.): toxic; tumour growth inhibition, MCF7 xenografts (FIG. 1) [6]: Tumour growth inhibition observed; growth inhibition of MCF-7 xenografts ([6]; given i.p.): Significant growth inhibition; toxicity in MT-1 xenograft study ([7]; 25 mg/kg, parent compounds): toxic; tumor growth inhibition in MT-1 xenografts ([7]; dose dependence): dose-dependent tumor growth inhibition; weight loss in MT-1 xenograft study ([7]; dose dependence): weight loss; biphasic dose-response (second growth phase) (sensitive cell lines): the biphasic response is eliminated

Which “tumour growth inhibition, MCF7 xenografts (FIG. 1)” value [6] does the source give for `Cc1cc(-c2nc3ccccc3s2)ccc1N` [DF203, 2-(4′-amino-3′-methylphenyl)benzothiazole, reference compound] here?
The value was “Tumour growth inhibition observed”.

And the “anti-proliferative activity in cell lines of cancers other than human breast cancer” value [8]?
The value was “exhibit anti-proliferative activity selectively”.
